For orientation: IC50 means the point on the concentration scale where inhibition reaches its midpoint.

The structures appear in SMILES notation. Where two headings read alike, the source gives them in different places.

Assay [1] addresses T1, TNF-α:TNFRp60 interaction (Homo sapiens, UniProt P01375).
T1 construct: purchased R&D System
Put plainly: Binding assay (ELISA): compound inhibits binding of biotin-TNF-α to immobilized TNFRp60 (Example 8). The following applies: average value; read-out: IC50 for TNF-α:TNFRp60 binding interruption. From the text:
(§1) IC50, as used herein, is the concentration at which a compound interrupts the interaction of a protein and its receptor to 50% interaction in the assay shown in Example 7 (for interruption of CD40:CD154 interaction) and Example 8 (for interruption of TNF-α:TNFRp60 interaction). Examples of such protein and receptor pairs are CD40:CD154 and TNF-α:TNFRp60.
Binding Assay to Assess whether a Compound Binds to TNF-α and Inhibits TNF-α/TNFRp60 Interaction
1) Ninety-six well plates of Nunc Maxisorp were coated with 100 μl/well of 0.6 ug/ml tumor necrosis factor receptor p60 (TNFRp60) (Browning, J. L.; Douglas, I.; Ngam-ek, A.; Bourdon, P. R.; Ehrenfels, B. N.; Miatkowski, K.; Zafari, M.; Yampaglia, A. M.; Lawton, P.; Meier, W.; Benjamin, C. P.; Hession, C. J. Immunol. 1995, 154, 33-46) in PBS, pH 7.2, covered with plate sealers (Costar, Cat. No. 3095) and stored overnight at 4° C.
2) The coated plates were shook out and blotted dry.
3) TNFRp60-coated plates were blocked with 300 μl per well of PBS (0.05% Tween-20, 1% BSA, made from media prep) at 4° C. for one hour. Plates were stored for 3 weeks at 4° C. […]
14) The plates were read within 30 minutes of adding stop reagent at […] by microplate reader (Molecular Devices Co.) […]
Compounds that blocked TNF-α/TNFRp60 interaction prevented TNF-α from binding to immobilized TNFRp60 and gave a low absorbance reading. […]
(In general: An ELISA detects its analyte on a solid surface through an enzyme-linked reagent.)

The target in assay [2] is T2, CD40:CD154 interaction (Homo sapiens, UniProt P29965).
T2 construct: made in house; host or cells: Pichia (CD40-Ig only)
T2 sequence (P29965 116-261 limits assumed): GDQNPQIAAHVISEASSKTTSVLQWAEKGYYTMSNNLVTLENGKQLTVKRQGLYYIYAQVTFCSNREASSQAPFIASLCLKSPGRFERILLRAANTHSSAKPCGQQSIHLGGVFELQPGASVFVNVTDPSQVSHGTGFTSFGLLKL
In words: Binding assay (ELISA): compound binds CD154 and inhibits binding of biotin-CD154 to immobilized CD40-Ig (Example 7). The following applies: read-out: IC50 for CD40:CD154 binding interruption.
From the text: as §1
Binding Assay to Assess whether a compound Binds CD154 and Inhibits CD40:CD154 Interaction
1) Ninety-six well plates of Nunc Maxisorp were coated with 100 μl of 5-10 μg/ml human CD40-Ig produced in Pichia cells, (in PBS pH 7.2) per well, covered with plate sealers (Costar, Cat. No. 3095) and stored overnight at 4° C.
2) The CD40-Ig-coated plates were shook out and blotted dry.
3) The CD40-Ig-coated plates were blocked with 300 μl per well of PBS (0.05% Tween-20, 1% BSA, pH 7.2) at RT for one hour or in the refrigerator for up to 3 weeks.
4) The CD40-Ig-coated plates were washed 3× with PBS+0.05% Tween-20 pH 7.4 with plate washer at RT.
5) The plates were optionally blotted dry.
6) Primary Screening of compounds: • a. Compounds were titrated in 100 mM Hepes+0.005% BSA pH 7.2 in Titertube (Bio-Rad Laboratories) and 50 μl of titrated compounds was then added into each well of the plate. IC50 parameters: • One 7 point curve per compound was generated where each point was run in triplicate. […] Fifty μl/well of 0.07-1.6 μg/ml biotin-CD154 in 100 mM Hepes+0.005% BSA (pH 7.2) was added per well. Final concentration of biotin-CD154 was […]. It was mixed with compound in each well in the plate. • c. The plates were covered with plate sealer and incubated for one-hour at RT.
7) The plates were washed 3× with plate washer with PBS+0.05% Tween-20 (pH 7.4) at RT.
8) The plates were optionally blotted dry.
9) 100 μl of a 1/300,000 dilution of HRP-Strep/Avidin (Jackson Immuno Research Code3 #016-030-084) was added to each well. Dilution buffer was: PBS+0.05% Tween-20. The plates were covered with plate sealer and incubated for one hour at room temperature.
10) The plates were washed with plate washer 3× at RT.
11) The plates were optionally blotted dry.
12) 100 μl/well of TMB(1-component) (Kirkegarrd & Perry Labs, Prod #50-76-04) was added to each well and incubated at RT about 10 min.
13) 100 μl/well of 0.18M H2SO4 was added to stop reaction in the plates.
14) The plates were read within 30 minutes of stopping the reaction at […] on a microplate reader (Molecular Devices Co.).
Compounds that bound to CD154 and blocked CD40:CD154 interaction prevented CD154 from binding to immobilized CD40-Ig and gave a low absorbance reading.
• 1. Total reaction: Reaction well contained 50 μl of 100 mM Hepes/0.005% BSA (no test compound) • 2. Positive control: Reaction well contained 10 μl of 1 mg/ml 5c8 (anti-CD154 mAb) and 50 μl of 100 mM Hepes/0.005% BSA. • 3. Blank control: Reaction well contained 100 μl 100 mM Hepes/0.005% BSA. • 4. Compound control: Titration series in triplicate of BIO-002108-00.

The mark [3] stands for this setting: compounds 'shown to have' the IC50 range, assay of Example 7, top concentration 125 μM.
Setting [4] is: compounds 12 and 14-21: 'considered to have' the IC50 range (not worded as 'shown').

T1 sequence (P01375 77-233 limits assumed, species assumed): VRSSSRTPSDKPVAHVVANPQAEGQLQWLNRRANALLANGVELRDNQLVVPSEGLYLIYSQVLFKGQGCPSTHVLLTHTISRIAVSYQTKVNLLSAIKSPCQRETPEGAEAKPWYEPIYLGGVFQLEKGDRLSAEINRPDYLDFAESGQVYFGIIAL

For `O=C(Nc1cccc(S(=O)(=O)Nc2cc3ccccc3cc2C(=O)O)c1)Nc1cccc(S(=O)(=O)Nc2cc3ccccc3cc2C(=O)O)c1` [BIO-002108-00, reference compound], the IC50 in assay [1] is greater than 125 µM; in assay [2] (setting [3]) it was less than 50 µM. `CCC(C)C(NC(=O)c1cc(-c2cc(C(=O)NCc3ccccc3Br)nc(C(=O)N3CCCC3CN3CCCC3)c2)cc(C(=O)N2CCCC2CN2CCCC2)n1)C(=O)O` (stereo not shown) [Compound 1]: in assay [2] (setting [3]), the IC50 was 50 to 125 µM. On the same count and under the same terms, the value for `CCC(C)C(NC(=O)c1cc(-c2cc(C(=O)NCc3cccc(OC)c3OC)nc(C(=O)N3CCCC3CN3CCCC3)c2)cc(C(=O)N2CCCC2CN2CCCC2)n1)C(=O)O` (stereo not shown) [Compound 2] was greater than 125 µM; that for `CCC(C)C(NC(=O)c1cc(-c2cc(C(=O)NC(C)(C)Cc3ccc(F)cc3)nc(C(=O)N3CCCC3CN3CCCC3)c2)cc(C(=O)N2CCCC2CN2CCCC2)n1)C(=O)O` (stereo not shown) [Compound 3] was greater than 125 µM. The same measure, in the same setting: the value for `O=C(NCCCc1ccccc1)c1cc(-c2cc(C(=O)NC(C(=O)O)C3CCCCC3)nc(C(=O)N3CCCC3CN3CCCC3)c2)cc(C(=O)N2CCCC2CN2CCCC2)n1` (stereo not shown) [Compound 4] was less than 50 µM. For `O=C(NCCC(c1ccccc1)c1ccccc1)c1cc(-c2cc(C(=O)N[C@H](C(=O)O)C3CCCCC3)nc(C(=O)N3CCC[C@H]3CN3CCCC3)c2)cc(C(=O)N2CCC[C@H]2CN2CCCC2)n1` [Compound 5], the IC50 in assay [2] (setting [3]) is less than 50 µM. On to `O=C(NCc1cccc(-c2ccccc2)c1)c1cc(-c2cc(C(=O)N[C@H](C(=O)O)C3CCCCC3)nc(C(=O)N3CCC[C@H]3CN3CCCC3)c2)cc(C(=O)N2CCC[C@H]2CN2CCCC2)n1` [Compound 6], for which the IC50 in assay [2] (setting [3]) is less than 50 µM. On the same count and under the same terms, the value for `O=C(NCCCc1ccc([N+](=O)[O-])cc1)c1cc(-c2cc(C(=O)NC(C(=O)O)C3CCCCC3)nc(C(=O)N3CCCC3CN3CCCC3)c2)cc(C(=O)N2CCCC2CN2CCCC2)n1` (stereo not shown) [Compound 7] was 50 to 125 µM; that for `Nc1ccc(CCCNC(=O)c2cc(-c3cc(C(=O)NC(C(=O)O)C4CCCCC4)nc(C(=O)N4CCCC4CN4CCCC4)c3)cc(C(=O)N3CCCC3CN3CCCC3)n2)cc1` (stereo not shown) [Compound 8] was 50 to 125 µM; that for `Nc1cccc(C(CCNC(=O)c2cc(-c3cc(C(=O)NC(C(=O)O)C4CCCCC4)nc(C(=O)N4CCCC4CN4CCCC4)c3)cc(C(=O)N3CCCC3CN3CCCC3)n2)c2ccccc2)c1` (stereo not shown) [Compound 10] was 50 to 125 µM. The same measure, in the same setting: the result for `O=C(NCCC(c1ccccc1)c1ccc([N+](=O)[O-])cc1)c1cc(-c2cc(C(=O)NC(C(=O)O)C3CCCCC3)nc(C(=O)N3CCCC3CN3CCCC3)c2)cc(C(=O)N2CCCC2CN2CCCC2)n1` (stereo not shown) [Compound 11] reads less than 50 µM. As for `O=C(NC1CCc2ccccc21)c1cc(-c2cc(C(=O)NC(C(=O)O)C3CCCCC3)nc(C(=O)N3CCCC3CN3CCCC3)c2)cc(C(=O)N2CCCC2CN2CCCC2)n1` (stereo not shown) [Compound 12], the IC50 in assay [2] (setting [4]) is 50 to 125 µM.

Consider `O=C(NCc1ccc2ccccc2c1)c1cc(-c2cc(C(=O)N[C@H](C(=O)O)C3CCCCC3)nc(C(=O)N3CCC[C@H]3CN3CCCC3)c2)cc(C(=O)N2CCC[C@H]2CN2CCCC2)n1` [Compound 13], for which the IC50 in assay [2] (setting [3]) lay within 50 to 125 µM.

As for `O=C(NCCCc1ccc(Br)cc1)c1cc(-c2cc(C(=O)N[C@H](C(=O)O)C3CCCCC3)nc(C(=O)N3CCC[C@H]3CN3CCCC3)c2)cc(C(=O)N2CCC[C@H]2CN2CCCC2)n1` [Compound 14], the IC50 in assay [2] (setting [4]) was 50 to 125 µM. Same read-out and setting: the result for `O=C(NCCCCc1ccccc1)c1cc(-c2cc(C(=O)N[C@H](C(=O)O)C3CCCCC3)nc(C(=O)N3CCC[C@H]3CN3CCCC3)c2)cc(C(=O)N2CCC[C@H]2CN2CCCC2)n1` [Compound 15] reads less than 50 µM. Still for that read-out and setting: the result for `O=C(NC/C=C/c1ccccc1)c1cc(-c2cc(C(=O)NC(C(=O)O)C3CCCCC3)nc(C(=O)N3CCCC3CN3CCCC3)c2)cc(C(=O)N2CCCC2CN2CCCC2)n1` (stereo not shown) [Compound 16] reads 50 to 125 µM. The same measure, in the same setting: the value for `CCC(C)C(NC(=O)c1cc(-c2cc(C(=O)NCc3ccccc3Br)nc(C(=O)N3CCCC3CN(C)C)c2)cc(C(=O)N2CCCC2CN(C)C)n1)C(=O)O` (stereo not shown) [Compound 17] was 50 to 125 µM; that for `CCC(C)C(NC(=O)c1cc(-c2cc(C(=O)NCc3ccccc3Br)nc(C(=O)N3CCCC3CN(C)C3CCCCC3)c2)cc(C(=O)N2CCCC2CN(C)C2CCCCC2)n1)C(=O)O` (stereo not shown) [Compound 18] was 50 to 125 µM; that for `CCC(C)C(NC(=O)c1cc(-c2cc(C(=O)NCc3ccccc3Br)nc(C(=O)N3CCCC3CN3CCCCC3)c2)cc(C(=O)N2CCCC2CN2CCCCC2)n1)C(=O)O` (stereo not shown) [Compound 19] was 50 to 125 µM. For the compound `COC(=O)[C@@H](NC(=O)c1cc(-c2cc(C(=O)NCCCc3ccccc3)nc(C(=O)N3CCC[C@H]3CN3CCCC3)c2)cc(C(=O)N2CCC[C@H]2CN2CCCC2)n1)C1CCCCC1` [Compound 20], the IC50 in assay [2] (setting [4]) fell in the range of 50 to 125 µM. The same measure, in the same setting: the value for `CC(C)(C)[C@H](NC(=O)c1cc(-c2cc(C(=O)NCCCc3ccccc3)nc(C(=O)N3CCC[C@H]3CN3CCCC3)c2)cc(C(=O)N2CCC[C@H]2CN2CCCC2)n1)C(=O)O` [Compound 21] was 50 to 125 µM.
